The record followed here is BindingDB's records for doi:10.7270/Q2RX99Q9 (The Scripps Research Institute Molecular Screening Center, 2013).

Each structure is given as a SMILES string.

This test addresses Albumin (Bos taurus, UniProt P02769).

Chain of Albumin (P02769 whole entry): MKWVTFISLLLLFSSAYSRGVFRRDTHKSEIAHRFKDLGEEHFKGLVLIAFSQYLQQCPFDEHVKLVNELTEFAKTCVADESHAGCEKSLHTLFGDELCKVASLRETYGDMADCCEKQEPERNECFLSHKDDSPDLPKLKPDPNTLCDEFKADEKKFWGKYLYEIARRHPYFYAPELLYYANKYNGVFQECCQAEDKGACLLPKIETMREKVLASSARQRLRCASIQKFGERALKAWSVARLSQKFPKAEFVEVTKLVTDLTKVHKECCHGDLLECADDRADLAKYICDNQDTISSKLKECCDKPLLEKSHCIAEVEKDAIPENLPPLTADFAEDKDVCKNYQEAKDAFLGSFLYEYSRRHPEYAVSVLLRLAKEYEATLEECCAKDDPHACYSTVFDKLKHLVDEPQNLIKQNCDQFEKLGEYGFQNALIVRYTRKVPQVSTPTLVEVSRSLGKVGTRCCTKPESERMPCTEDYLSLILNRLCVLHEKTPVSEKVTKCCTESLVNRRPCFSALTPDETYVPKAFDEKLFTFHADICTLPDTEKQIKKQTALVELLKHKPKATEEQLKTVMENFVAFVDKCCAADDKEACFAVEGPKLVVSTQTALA

In general, IC50 refers to the concentration that gives 50% inhibition. `O=[N+]([O-])c1cc(Br)c(O)c(CN=Nc2nnnn2-c2cccc3ccccc23)c1` [(6E)-2-bromo-6-[[2-(1-naphthalen-1-yltetrazol-5-yl)hydrazinyl]methylidene]-4-nitrocyclohexa-2,4-dien-1-one]: the IC50 is greater than 94.1 µM.
For `CC1=CC(/C=N/n2c(COc3ccccc3C)nc3ccccc3c2=O)C(=O)C([N+](=O)[O-])=C1` (stereo not drawn) the value was greater than 94.1 µM; for `Cc1ccc(C(=O)Nc2nc(C(C)(C)C)cs2)s1` [N-(4-tert-butyl-2-thiazolyl)-5-methyl-2-thiophenecarboxamide], greater than 94.1 µM; for `O=Nc1[nH]c(=O)c(CC(=O)c2ccccc2)nc1NO` [SMR000539633], greater than 94.2 µM.
Next, `CC1=CC(/C=N/n2c(CO[N-][C+](C)c3ccccc3)nc3ccccc3c2=O)C(=O)C([N+](=O)[O-])=C1` (stereo not drawn): greater than 94.1 µM; `O=C(N/N=C/C1C=CC=C([N+](=O)[O-])C1=O)c1cccs1` (stereo not drawn): greater than 94.1 µM.
Next, `COc1ccc(C(=O)CC=NNC(=O)c2ccc(Cl)cc2)cc1` [SMR000499516]: greater than 94.1 µM; `O=C(N/N=C/C1C=C([N+](=O)[O-])C=C([N+](=O)[O-])C1=O)/C(=C\c1cccs1)NC(=O)c1ccccc1` (stereo not drawn) [SMR000207704]: greater than 94.1 µM.
For `Oc1ccc(CN=Nc2ncnc3c2ncn3Cc2ccccc2)cc1O` [(4Z)-2-oxidanyl-4-[[2-[9-(phenylmethyl)purin-6-yl]hydrazinyl]methylidene]cyclohexa-2,5-dien-1-one], the IC50 was greater than 94.1 µM.
Next, `O=C1C([N+](=O)[O-])=CC=CC1/C=N/n1cnc2scc(-c3ccc(Cl)cc3)c2c1=O` (stereo not drawn) [SMR000314525]: greater than 94.1 µM; `CCOC(=O)C1C(CC)=Nc2ccccc2N=C1NC(=O)Nc1ccc(Cl)c(Cl)c1` (stereo not drawn): greater than 94.1 µM; `CC1=CC([N+](=O)[O-])=CC(/C=N/NC(=O)C2COc3ccccc3O2)C1=O` (stereo not drawn) [N'-[(E)-(5-methyl-3-nitro-6-oxocyclohexa-2,4-dien-1-ylidene)methyl]-2,3-dihydro-1,4-benzodioxine-3-carbohydrazide]: greater than 94.2 µM.
Next, `COc1ccc(CC(=O)N/N=C/C2C=C([N+](=O)[O-])C=C(Br)C2=O)cc1` (stereo not drawn): greater than 94.1 µM.
For `O=C(N/N=C/C1C=C([N+](=O)[O-])C=CC1=O)c1cccc(N2CCCC2=O)c1` (stereo not drawn) the value was greater than 94.1 µM.
In the case of `O=C(N/N=C/C1C=C(Cl)C=C([N+](=O)[O-])C1=O)c1ccc2c(c1)OCO2` (stereo not drawn) [N'-[(E)-(3-chloranyl-5-nitro-6-oxidanylidene-cyclohexa-2,4-dien-1-ylidene)methyl]-1,3-benzodioxole-5-carbohydrazide], the IC50 is greater than 94.1 µM.
Next, `Cc1cc(=O)oc2cc(OCC(=O)N/N=C/C3C=C([N+](=O)[O-])C=CC3=O)ccc12` (stereo not drawn) [MLS000588734]: greater than 94.1 µM; `COC1=CC([N+](=O)[O-])=CC(/C=N/NC(=O)c2cc(C)nc3ccccc23)C1=O` (stereo not drawn): greater than 94.1 µM; `O=C1C([N+](=O)[O-])=CC(Cl)=CC1C=NNC(=S)Nc1ccc(S(=O)(=O)N2CCOCC2)cc1` (stereo not drawn) [1-[[(E)-(3-chloro-5-nitro-6-oxo-1-cyclohexa-2,4-dienylidene)methyl]amino]-3-[4-(4-morpholinylsulfonyl)phenyl]thiourea]: greater than 94.1 µM.
With `CC1=CC([N+](=O)[O-])=CC(/C=N/n2c(C)nc3ccccc3c2=O)C1=O` (stereo not drawn) [MLS000778735], the IC50 was greater than 94 µM.
For `Cc1cc(C(=O)NN=CC2C=C(Cl)C=C([N+](=O)[O-])C2=O)[nH]n1` (stereo not drawn) [SMR000414694] the value was greater than 94.1 µM.
For `Cc1cc(C(=O)N/N=C/C2C=C(Cl)C=C([N+](=O)[O-])C2=O)c2ccccc2n1` (stereo not drawn) [N'-[(E)-(3-chloranyl-5-nitro-6-oxidanylidene-cyclohexa-2,4-dien-1-ylidene)methyl]-2-methyl-quinoline-4-carbohydrazide] the value was greater than 94.1 µM.
On to `COC1=CC(=O)C(/C=N/NC(=O)c2ccncc2)C(OC)=C1[N+](=O)[O-]` (stereo not drawn) [MLS000673335], for which the IC50 was greater than 94.1 µM.
`Nc1nnc(CC(=O)N/N=C/C2C=C([N+](=O)[O-])C=CC2=O)s1` (stereo not drawn) [2-(5-amino-1,3,4-thiadiazol-2-yl)-N'-[(E)-(3-nitro-6-oxo-1-cyclohexa-2,4-dienylidene)methyl]acetohydrazide] had an IC50 greater than 94.1 µM.
Next, `C=CCN1C(=O)/C(=N\NC(=O)CNC(=O)/C=C/c2ccco2)c2ccccc21` [(E)-N-[1-Allyl-2-oxo-1,2-dihydro-indol-(3Z)-ylidene-hydrazinocarbonylmethyl]-3-furan-2-yl-acrylamide]: greater than 94.1 µM.
Next, `O=C1C=CC([N+](=O)[O-])=CC1/C=N/n1c(COc2ccccc2)nc2ccccc2c1=O` (stereo not drawn) [3-[[(E)-(3-nitro-6-oxocyclohexa-2,4-dien-1-ylidene)methyl]amino]-2-(phenoxymethyl)quinazolin-4-one]: greater than 94.1 µM.
For `O=C(CSc1nc2ccccc2s1)N/N=C/C1C=C([N+](=O)[O-])C=CC1=O` (stereo not drawn) [MLS000777065] the value was greater than 94.1 µM; for `O=C(N/N=C/C1C=C([N+](=O)[O-])C=CC1=O)/C(=C\c1cccs1)NC(=O)c1ccccc1` (stereo not drawn) [MLS000332530], greater than 94.1 µM.
In turn, `Cc1c(NC(=S)NN=CC2C=C([N+](=O)[O-])C=CC2=O)c(=O)n(-c2ccccc2)n1C` (stereo not drawn) [SMR000415003] gave an IC50 greater than 94.1 µM.
For the compound `CCc1n[nH]c(=S)n1N=CC1C=C(OC)C=C([N+](=O)[O-])C1=O` (stereo not drawn) [(6E)-6-[[(3-ethyl-5-sulfanylidene-1H-1,2,4-triazol-4-yl)amino]methylidene]-4-methoxy-2-nitro-1-cyclohexa-2,4-dienone], the IC50 is greater than 94.1 µM.
For `O=C1C=CC([N+](=O)[O-])=CC1C=NNC(=S)Nc1ccc(Cl)cc1Cl` (stereo not drawn) [MLS000777079] the value was greater than 94.1 µM.
As for `O=C(NN=CC1=CC(=O)C(=O)CC1)NN=CC1=CC(=O)C(=O)CC1` [1,3-bis[[(Z)-(3-hydroxy-4-oxocyclohexa-2,5-dien-1-ylidene)methyl]amino]urea], the IC50 was greater than 94.1 µM.
`Cc1cc2cc(CNC(=O)c3ccc(C)c([N+](=O)[O-])c3)ccc2[nH]1` [MLS000724615] registered an IC50 greater than 94.1 µM.
Next, `CCOC(=O)c1c(C)[nH]c(C(=O)N/N=C/C2C=C([N+](=O)[O-])C=CC2=O)c1C` (stereo not drawn) [ethyl 2,4-dimethyl-5-[[[(E)-(3-nitro-6-oxocyclohexa-2,4-dien-1-ylidene)methyl]amino]carbamoyl]-1H-pyrrole-3-carboxylate]: greater than 94.1 µM; `Cc1cc(C(=O)N/N=C/C2C=C(Br)C=C([N+](=O)[O-])C2=O)c2ccccc2n1` (stereo not drawn) [MLS000585468]: greater than 94.1 µM; `CN1C(=O)C(C=NNC(=O)c2cc3ccccc3cc2O)c2ccccc21` (stereo not drawn) [MLS000912237]: greater than 94.1 µM.
Next, `CC(NNC(=O)c1ccc(-c2ccccc2)cc1)=C1C(=O)c2ccccc2C1=O` [N-[(E)-1-(1,3-dioxoinden-2-yl)ethylideneamino]-4-phenylbenzamide]: greater than 94.1 µM; `O=C(NC(C(=O)NN=CC1C=C([N+](=O)[O-])C=CC1=O)c1n[nH]c(=O)c2ccccc12)c1ccccc1` (stereo not drawn) [N-[2-[2-[(E)-(3-nitro-6-oxidanylidene-cyclohexa-2,4-dien-1-ylidene)methyl]hydrazinyl]-2-oxidanylidene-1-(4-oxidanylidene-3H-phthalazin-1-yl)ethyl]benzamide]: greater than 94.1 µM.
The compound `O=C(CNC(=O)c1ccccc1Br)N/N=C/C1C=C([N+](=O)[O-])C=C(Br)C1=O` (stereo not drawn) [2-bromanyl-N-[2-[2-[(E)-(5-bromanyl-3-nitro-6-oxidanylidene-cyclohexa-2,4-dien-1-ylidene)methyl]hydrazinyl]-2-oxidanylidene-ethyl]benzamide] came in with an IC50 greater than 94.1 µM.
Next, `Cc1ccccc1C(=O)Nc1cccc(C(=O)N/N=C/C2C=C(Cl)C=C([N+](=O)[O-])C2=O)c1` (stereo not drawn) [N-(3-{[(2E)-2-(5-chloro-2-hydroxy-3-nitrobenzylidene)hydrazino]carbonyl}phenyl)-2-methylbenzamide]: greater than 94.1 µM; `O=C(O)c1ccccc1NS(=O)(=O)c1ccc(N=NCc2ccc(O)c(O)c2)c([N+](=O)[O-])c1` [SMR001238114]: greater than 94.1 µM.
For `Oc1c(Br)cc(CC=Nc2cc(O)c3cccnc3c2O)cc1Br` [7-[2-(3,5-dibromo-4-hydroxyphenyl)ethylamino]quinoline-5,8-dione] the value was greater than 94.2 µM; for `O=C1CC(=O)c2c(O)cc(O)c(O)c2C1=O` [4,5,7,8-tetrahydroxy-1,2-naphthoquinone], greater than 94.1 µM; for `O=C(N/N=C/C1C=C(Cl)C=C([N+](=O)[O-])C1=O)c1cccc(S(=O)(=O)N2CCOCC2)c1` (stereo not drawn) [MLS002155639], greater than 94.1 µM.
